The values below come from US11208382B2, “Entinostat-containing compound, crystal form of compound thereof, and preparation method therefor and pharmaceutical composition thereof” (Hangzhou SoliPharma Co., Ltd., priority 2017, dated 2021).

Holding throughout (format): physicochemical
Data set [1] can be described thus: phase stability test of the crystalline forms. The settings on record: for phases after storage: stored at room temperature and high temperature for 14 days. How it is done:
X-ray powder diffraction (XRPD): performed on Bruker D8 Advance diffractometer. The scan range 3-40° 20, step size 0.02020, and speed 0.2 s/step. Appropriate amounts of Crystalline Form of Compound A and Crystalline Form of Compound B in the present invention were used respectively for the phase stability test. The conditions were room temperature and high temperature (50° C.).

The nature of data set [2]: apparent water solubility test. As to conditions: for solubility at 3 min: thermodynamic from solid, apparent water solubility, water bath 25° C.±2° C., visual check for clear solution. The procedure:
Entinostat, Compound A and Compound B in the present invention were tested for the apparent water solubility, and the operations were as follows:
Placed 3 mg of sample in a 100 mL Erlenmeyer flask in a water bath at 25° C.±2° C., added water by doubling, stirred at about 200 rpm/min, checked visually if the solution was clear. The interval between each addition of water was 3 minutes, and the maximum amount of water to add was 60 mL.

The nature of data set [3]: chemical stability test by HPLC analysis. How it is done:
HPLC data were collected on Ultimate 3000 under the following conditions: column, YMC-Pack ODS-AQ (4.6*250 mm*5 μm); column temperature, 40° C.; flow rate, 1.5 mL/min; detection wavelength, 254 nm; injection volume 3 uL; operation time, 40 min; mobile phase, a mixture of acetonitrile: 10 mM monopotassium phosphate=1:2. 1. Appropriate amounts of entinostat and Compound A in the present invention were used respectively for HPLC analysis, the purity of the compounds and the maximum single impurity (RRT=1.403) were calculated. 2. Chemical stability tests of entinostat and Compound A in the present invention were performed. The conditions were as follows: room temperature, high temperature (40° C.), high humidity (75% RH), and acceleration (40° C.-75% RH), and the storage time is 14 days. Using HPLC analysis, the change of maximum single impurity (RRT=1.403), the change of the main ingredient level and the change of total impurities number were studied.

The mark [4] stands for this setting: High temperature (50° C.), 7 days.
The mark [5] stands for this setting: High temperature (50° C.), 14 days.
The mark [6] stands for this setting: High temperature (40° C.), 14 days, first line so headed (r10), listed as Entinostat.
The mark [7] stands for this setting: High temperature, 14 days, second line so headed (r12), listed as Entinostat.
[8] abbreviates: Room temperature, 0 days, listed as Entinostat.
[9] abbreviates: Room temperature, 14 days, listed as Entinostat.
Setting [10] is: Speeded-up (acceleration, 40° C.-75% RH), 14 days, listed as Entinostat.
Where [11] appears, read: High temperature (40° C.), 14 days, first line so headed (r10).
The mark [12] stands for this setting: High temperature, 14 days, second line so headed (r12).
Where [13] appears, read: Speeded-up (acceleration, 40° C.-75% RH), 14 days.

As a reminder, the solubility is how much of the substance goes into solution per volume. For `Nc1ccccc1NC(=O)c1ccc(CNC(=O)OCc2cccnc2)cc1.O=C(O)/C=C\C(=O)O` [Compound B], the “Crystal form after storage” value in data set [1] (setting [4]) is “unchanged”; in data set [1] (setting [5]), “unchanged”; in data set [1] (Room temperature, 7 days) it was “unchanged”; in data set [1] (Room temperature, 14 days), “unchanged”. Further, the “phases after storage” value in data set [1] is on record as “unchanged”. Besides, the solubility at 3 min in data set [2] is 1010 µg/mL.

As for `Nc1ccccc1NC(=O)c1ccc(CNC(=O)OCc2cccnc2)cc1` [entinostat, N-(2-aminophenyl)-4-[N-(pyridin-3-yl)methoxycarbonyllaminomethyl]benzamide], the “impurity at RRT=1.403, main ingredient and number of impurities after storage” value in data set [3] (14 days under room temperature, high temperature, high humidity and acceleration) is given as “essentially unchanged”. Further, the “Main ingredient (%)” value in data set [3] (setting [6]), in data set [3] (setting [7]), in data set [3] (setting [8]), in data set [3] (setting [9]) and in data set [3] (setting [10]) was 98.4% throughout. The “Number of impurities (≥0.04%)” value was 5 in data set [3] (setting [6]); 5 in data set [3] (setting [7]); 4 in data set [3] (setting [8]); 4 in data set [3] (setting [9]); 5 in data set [3] (setting [10]). In addition, the “RRT = 1.403 (%) maximum single impurity” value was determined as 1.44% in data set [3] (setting [6]); 1.43% in data set [3] (setting [7]); 1.42% in data set [3] (setting [8]); 1.42% in data set [3] (setting [9]); 1.41% in data set [3] (setting [10]). Also, the solubility at 3 min in data set [2] is less than 50 µg/mL.

Turning to `Nc1ccccc1NC(=O)c1ccc(CNC(=O)OCc2cccnc2)cc1` [Compound A], the “Crystal form after storage” value in data set [1] (setting [4]) is “unchanged”; in data set [1] (setting [5]) it was “unchanged”; in data set [1] (Room temperature, 7 days), “unchanged”; in data set [1] (Room temperature, 14 days), “unchanged”. In addition, the “phases after storage” value in data set [1] is “unchanged”. Further, the “Main ingredient (%)” value was 99.9% in data set [3] (setting [11]); 99.9% in data set [3] (setting [12]); 99.9% in data set [3] (Room temperature, 0 days); 99.9% in data set [3] (Room temperature, 14 days); 99.9% in data set [3] (setting [13]). The “Number of impurities (≥0.04%)” value in data set [3] (setting [11]) is on record as 0; in data set [3] (setting [12]), 0; in data set [3] (Room temperature, 0 days) it was 0; in data set [3] (Room temperature, 14 days), 0; in data set [3] (setting [13]) it was 0. In addition, the “RRT = 1.403 (%) maximum single impurity” value was 0.11% in data set [3] (setting [11]); 0.11% in data set [3] (setting [12]); 0.12% in data set [3] (Room temperature, 0 days); 0.13% in data set [3] (Room temperature, 14 days); 0.13% in data set [3] (setting [13]).

With `Nc1ccccc1NC(=O)c1ccc(CNC(=O)OCc2cccnc2)cc1` [polymorph A, N-(2-aminophenyl)-4-[N-(pyridin-3-yl)methoxycarbonyllaminomethyl]benzamide], the “solubility in water (in words)” value in data set [2] (finding of the inventors on prior-art polymorphs, no method given) was “low”.
